pIC50: −log10 of the molar value.
Legend:
[1] = tested on: A549; experiment: Growth inhibition of human A549/ATCC cells assessed as cell growth at 1 uM incubated for 48 hrs by sulforhodamine B assay relative to control; format: functional; conditions: A549, 48 h, read-out: Activity
[2] = tested on: NCI-H322M; experiment: Growth inhibition of human NCI-H322M cells assessed as cell growth at 0.1 uM incubated for 48 hrs by sulforhodamine B assay relative to control; format: functional; conditions: read-out: Activity
[3] = tested on: OVCAR-4; experiment: Growth inhibition of human OVCAR4 cells assessed as cell growth at 0.01 uM incubated for 48 hrs by sulforhodamine B assay relative to control; format: functional; conditions: OVCAR-4, 48 h, read-out: Activity
[4] = tested on: HCC 2998; experiment: Growth inhibition of human HCC2998 cells incubated for 48 hrs by sulforhodamine B assay; format: functional, cell-based; conditions: HCC 2998, 48 h
[5] = tested on: COLO 205; experiment: Growth inhibition of human COLO205 cells assessed as cell growth at 0.01 uM incubated for 48 hrs by sulforhodamine B assay relative to control; format: functional; conditions: COLO 205, 48 h, read-out: Activity
[6] = tested on: SNB-75; experiment: Growth inhibition of human SNB75 cells assessed as cell growth at 0.1 uM incubated for 48 hrs by sulforhodamine B assay relative to control; format: functional; conditions: SNB-75, 48 h, read-out: Activity
[7] = tested on: HT-29; experiment: Growth inhibition of human HT-29 cells assessed as cell growth at 1 uM incubated for 48 hrs by sulforhodamine B assay relative to control; format: functional; conditions: HT-29, 48 h, read-out: Activity
[8] = tested on: Hs-578T; experiment: Growth inhibition of human Hs578T cells assessed as cell growth at 100 uM incubated for 48 hrs by sulforhodamine B assay relative to control; format: functional; conditions: read-out: Activity
[9] = tested on: LOX IMVI; experiment: Growth inhibition of human LOXIMVI cells assessed as cell growth at 100 uM incubated for 48 hrs by sulforhodamine B assay relative to control; format: functional; conditions: read-out: Activity
[10] = tested on: SK-MEL-28; experiment: Growth inhibition of human SK-MEL-28 cells assessed as cell growth at 1 uM incubated for 48 hrs by sulforhodamine B assay relative to control; format: functional; conditions: SK-MEL-28, 48 h, read-out: Activity
[11] = tested on: HCC 2998; experiment: Growth inhibition of human HCC2998 cells assessed as cell growth at 0.01 uM incubated for 48 hrs by sulforhodamine B assay relative to control; format: functional; conditions: HCC 2998, 48 h, read-out: Activity
[12] = tested on: RXF 393; experiment: Growth inhibition of human RXF393 cells assessed as cell growth at 100 uM incubated for 48 hrs by sulforhodamine B assay relative to control; format: functional; conditions: RXF 393, 48 h, read-out: Activity
[13] = tested on: UACC-257; experiment: Growth inhibition of human UACC257 cells assessed as cell growth at 1 uM incubated for 48 hrs by sulforhodamine B assay relative to control; format: functional; conditions: UACC-257, 48 h, read-out: Activity
[14] = tested on: OVCAR-5; experiment: Growth inhibition of human OVCAR5 cells assessed as cell growth at 1 uM incubated for 48 hrs by sulforhodamine B assay relative to control; format: functional; conditions: OVCAR-5, 48 h, read-out: Activity
[15] = tested on: Hs-578T; experiment: Growth inhibition of human Hs578T cells incubated for 48 hrs by sulforhodamine B assay; format: functional, cell-based
[16] = tested on: SNB-19; experiment: Growth inhibition of human SNB19 cells incubated for 48 hrs by sulforhodamine B assay; format: functional, cell-based; conditions: SNB-19, 48 h
[17] = tested on: LOX IMVI; experiment: Growth inhibition of human LOXIMVI cells assessed as cell growth at 0.01 uM incubated for 48 hrs by sulforhodamine B assay relative to control; format: functional; conditions: read-out: Activity
[18] = tested on: NCI-H322M; experiment: Growth inhibition of human NCI-H322M cells assessed as cell growth at 1 uM incubated for 48 hrs by sulforhodamine B assay relative to control; format: functional; conditions: read-out: Activity
[19] = tested on: SN12C; experiment: Growth inhibition of human SN12C cells assessed as cell growth at 0.1 uM incubated for 48 hrs by sulforhodamine B assay relative to control; format: functional; conditions: read-out: Activity
[20] = tested on: SK-MEL-2; experiment: Growth inhibition of human SK-MEL-2 cells assessed as cell growth at 0.01 uM incubated for 48 hrs by sulforhodamine B assay relative to control; format: functional; conditions: SK-MEL-2, 48 h, read-out: Activity
[21] = tested on: UO-31; experiment: Growth inhibition of human UO31 cells assessed as cell growth at 100 uM incubated for 48 hrs by sulforhodamine B assay relative to control; format: functional; conditions: UO-31, 48 h, read-out: Activity
[22] = tested on: NCI/ADR-RES; experiment: Growth inhibition of human NCI/ADR-RES cells assessed as cell growth at 1 uM incubated for 48 hrs by sulforhodamine B assay relative to control; format: functional; conditions: read-out: Activity
[23] = tested on: MDA-MB-468; experiment: Growth inhibition of human MDA-MB-468 cells assessed as cell growth at 100 uM incubated for 48 hrs by sulforhodamine B assay relative to control; format: functional; conditions: MDA-MB-468, 48 h, read-out: Activity
[24] = tested on: HOP-62; experiment: Growth inhibition of human HOP62 cells assessed as cell growth at 0.01 uM incubated for 48 hrs by sulforhodamine B assay relative to control; format: functional; conditions: HOP-62, 48 h, read-out: Activity
[25] = tested on: NCI-H322M; experiment: Growth inhibition of human NCI-H322M cells assessed as cell growth at 100 uM incubated for 48 hrs by sulforhodamine B assay relative to control; format: functional; conditions: read-out: Activity
[26] = tested on: T47D; experiment: Growth inhibition of human T47D cells assessed as cell growth at 0.1 uM incubated for 48 hrs by sulforhodamine B assay relative to control; format: functional; conditions: read-out: Activity
[27] = tested on: UACC-62; experiment: Growth inhibition of human UACC62 cells incubated for 48 hrs by sulforhodamine B assay; format: functional, cell-based; conditions: UACC-62, 48 h
[28] = tested on: MDA-MB-435; experiment: Growth inhibition of human MDA-MB-435 cells incubated for 48 hrs by sulforhodamine B assay; format: functional, cell-based; conditions: MDA-MB-435, 48 h
[29] = tested on: A498; experiment: Growth inhibition of human A498 cells incubated for 48 hrs by sulforhodamine B assay; format: functional, cell-based; conditions: A498, 48 h
[30] = tested on: HT-29; experiment: Growth inhibition of human HT-29 cells assessed as cell growth at 100 uM incubated for 48 hrs by sulforhodamine B assay relative to control; format: functional; conditions: HT-29, 48 h, read-out: Activity
[31] = read-out: LC50 (the source's name)
[32] = read-out: pLC50 (the source's name) (converted)

`COc1cc(Cl)cc(-c2nn(-c3cccc(NC(=O)c4cccc(C(F)(F)F)c4)c3)cc2-c2ccncc2)c1` showed a growth at 1 µM [1] of 75%, a growth at 0.1 µM [2] of 95% and a growth at 0.01 µM [3] of 106%. It also gave a GI50 ([4]; read-out: GI50) of 5.56 µM, a CC50 [4, 31] of over 100 µM and a TGI ([4]; read-out: TGI) of over 100 µM. It also gave a GI50 ([4]; read-out: pGI50 (converted)) of 6.61 µM, a CC50 [4, 32] of over 100 µM and a TGI ([4]; read-out: pTGI (converted)) of over 100 µM. The growth at 0.01 µM [5] was 108%, the growth at 0.1 µM [6] was 54% and the growth at 1 µM [7] was 70%. For the same molecule, the growth at 100 µM [8] was 53%, the growth at 100 µM [9] was 41% and the growth at 1 µM [10] was 92%. The growth at 0.01 µM [11] was 108%, the growth at 100 µM [12] was 19% and the growth at 1 µM [13] was 92%. The growth at 1 µM [14] was 96%, the GI50 ([15]; read-out: GI50) was over 100 µM and the CC50 [15, 31] was over 100 µM. For the same molecule, the TGI ([15]; read-out: TGI) was over 100 µM, the GI50 ([15]; read-out: pGI50 (converted)) was over 100 µM and the CC50 [15, 32] was over 100 µM. The TGI ([15]; read-out: pTGI (converted)) was over 100 µM, the GI50 ([16]; read-out: GI50) was over 100 µM and the CC50 [16, 31] was over 100 µM. It also gave a TGI ([16]; read-out: TGI) of over 100 µM, a GI50 ([16]; read-out: pGI50 (converted)) of over 100 µM and a CC50 [16, 32] of over 100 µM. It also gave a TGI ([16]; read-out: pTGI (converted)) of over 100 µM, a growth at 0.01 µM [17] of 100% and a growth at 1 µM [18] of 90%. The growth at 0.1 µM [19] was 99%, the growth at 0.01 µM [20] was 52% and the growth at 100 µM [21] was 37%. The growth at 1 µM [22] was 89%, the growth at 100 µM [23] was 28% and the growth at 0.01 µM [24] was 104%. For the same molecule, the growth at 100 µM [25] was 75%, the growth at 0.1 µM [26] was 101% and the pIC50 [27] was 5.09. For the same molecule, the GI50 ([27]; read-out: GI50) was 0.04 µM, the CC50 [27, 31] was over 100 µM and the TGI ([27]; read-out: TGI) was over 100 µM. It also gave a GI50 ([27]; read-out: pGI50 (converted)) of 8.13 µM, a CC50 [27, 32] of over 100 µM and a TGI ([27]; read-out: pTGI (converted)) of over 100 µM. It also gave a GI50 ([28]; read-out: GI50) of over 100 µM, an LC50 ([28]; read-out: LC50) of over 100 µM and a TGI ([28]; read-out: TGI) of over 100 µM. For the same molecule, the GI50 ([28]; read-out: pGI50 (converted)) was over 100 µM, the LC50 ([28]; read-out: pLC50 (converted)) was over 100 µM and the TGI ([28]; read-out: pTGI (converted)) was over 100 µM. It also gave a CC50 [29, 31] of over 100 µM, a TGI ([29]; read-out: TGI) of over 100 µM and a CC50 [29, 32] of over 100 µM. It also gave a TGI ([29]; read-out: pTGI (converted)) of over 100 µM and a growth at 100 µM [30] of 34%.

Source: ChEMBL document CHEMBL4308841, “Synthesis, in vitro antiproliferative activity, and kinase inhibitory effects of pyrazole-containing diarylureas and diarylamides” (Eur J Med Chem, 2018)
